Test results published in US7547729B2, “1,3-diphenylprop-2-en-1-one derivative compounds, preparation method thereof and uses of same” (Genfit, priority 2004, dated 2009).

What was measured:
LDL = assay: Protection against LDL oxidation by copper (conjugated diene formation); format: biochemical; details: for diene formation rate: FIG. 4b, absence of compounds 1.9; for rate of LDL oxidation: FIG. 8b, absence of compounds 2.5; for kinetics of LDL oxidation (lag phase): FIG. 5a, no control value printed; for LDL oxidation rate: FIG. 5b, absence of compounds 2; for rate of diene formation: FIG. 2b, copper alone 2.2
Experimental: Unless otherwise indicated, the reagents were from Sigma (St Quentin, France). LDL were prepared according to the method described by Lebeau et al. (Lebeau, Furman et al. 2000).
The solutions of test compounds were prepared at 10^−2 M concentration in bicarbonate buffer (pH 9) and diluted in PBS to obtain final concentrations ranging from 0.1 to 100 μM
Prior to oxidation, EDTA was removed from the LDL preparation by dialysis. Oxidation then took place at 30° C. by adding 100 μl of 16.6 μM CuSO4 solution to 160 μL of LDL (125 μg protein/ml) and 20 μl of a test compound solution. The formation of dienes, the species under observation, was followed by measuring optical density at 232 nm in the samples treated with the compounds in the presence or absence of copper. Optical density at 232 nm was measured every 10 minutes for 8 hours in a thermostated spectrophotometer (Tecan Ultra 380). The analyses were performed in triplicate. The compounds were considered to have antioxidant activity when they induced a longer lag phase and reduced the rate of oxidation and the amount of dienes formed in comparison with the control sample.

PPARα = biological target: T1, PPARα (Homo sapiens, UniProt Q07869); assay: PPARα/Gal4 transactivation system in COS-7 cells; format: cell-based; details: 24 hours
T1 construct: expressed in transfected cells; host or cells: COS-7 cells
T1 sequence (Q07869 239-466 limits assumed): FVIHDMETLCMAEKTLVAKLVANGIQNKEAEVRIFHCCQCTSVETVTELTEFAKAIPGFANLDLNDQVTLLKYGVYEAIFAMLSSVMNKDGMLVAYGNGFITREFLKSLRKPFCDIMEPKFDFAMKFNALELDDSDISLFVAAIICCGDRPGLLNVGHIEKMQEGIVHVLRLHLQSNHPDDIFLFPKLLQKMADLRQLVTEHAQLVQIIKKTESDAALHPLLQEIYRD
Experimental: (§1) COS-7 cells were incubated with different concentrations of the inventive compounds for 24 hours. The results are expressed as the induction factor (ratio of luminescent signal obtained with the compound and that observed without the compound) after the different treatments.
(§2) PPAR activation was tested in vitro in RK13 epitheloid or COS-7 cell lines by measuring the transcriptional activity of chimeras composed of the DNA binding domain of the yeast gal4 transcription factor and the ligand binding domain of the different PPARs. These latter results were then confirmed in cell lines according to the following protocols:
(§3) RK13 cells were from ECACC (Porton Down, UK), COS-7 cells were from the ATCC (American Type Culture Collection) and were grown in DMEM medium supplemented with 10% (VN) fetal calf serum, 100 U/ml penicillin (Gibco, Paisley, UK) and 2 mM L-glutamine (Gibco, Paisley, UK). The culture medium was changed every two days. Cells were kept at 37° C. in a humidified 95% air/5% CO2 atmosphere.
(§4) The plasmids pG5TkpGL3, pRL-CMV, pGal4-hPPARα, pGal4-hPPARγ, pGal4-hPPARδ and pGal4-φ have been described by Raspe, Madsen et al. (1999). The pGal4-mPPARα, pGal4-hPPARγ and pGal4-hPPARδ constructs were obtained by cloning into the pGal4-φ vector of PCR-amplified DNA fragments corresponding to the DEF domains of the human PPARα, PPARγ and PPARδ nuclear receptors.
(§5) RK13 cells were seeded in 24-well culture dishes at 5×10^4 cells/well, COS-7 cells in 96-well culture dishes at 5×10^4 cells/well and transfected for 2 hours with the reporter plasmid pG5TkpGL3 (50 ng/well), the expression vectors pGal4-φ, pGal4-mPPARα, pGal4-hPPARα, pGal4-hPPARγ, pGal4-hPPARδ (100 ng/well) and the transfection efficiency control vector pRL-CMV (1 ng/well) according to the previously described protocol (Raspe, Madsen et al. 1999), then incubated for 36 hours with the test compounds. At the end of the experiment, the cells were lysed (Gibco, Paisley, UK) and luciferase activity was determined with a Dual-Luciferase™ Reporter Assay System kit (Promega, Madison, Wis., USA) for RK13 cells and Steady Glow Luciferase (Promega) for COS-7 cells according to the supplier's instructions as previously described. The protein content of the cell extracts was then measured with the Bio-Rad Protein Assay (Bio-Rad, Munich, Germany) as directed by the supplier.

PPARγ = biological target: T2, PPARγ (Homo sapiens, UniProt P37231); assay: PPARγ/Gal4 transactivation system in COS-7 cells; format: cell-based; details: 24 hours
T2 construct: expressed in transfected cells; host or cells: COS-7 cells
T2 sequence (P37231 238-503 limits assumed): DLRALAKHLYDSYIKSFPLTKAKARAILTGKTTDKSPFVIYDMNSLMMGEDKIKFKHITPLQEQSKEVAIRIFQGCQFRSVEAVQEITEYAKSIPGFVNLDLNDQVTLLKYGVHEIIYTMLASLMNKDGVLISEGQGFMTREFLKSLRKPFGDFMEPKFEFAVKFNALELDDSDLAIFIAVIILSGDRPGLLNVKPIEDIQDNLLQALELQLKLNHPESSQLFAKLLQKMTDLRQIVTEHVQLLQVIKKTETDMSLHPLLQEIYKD
Experimental: as §1, §2, §3, §4, §5

[1] = FIG. 4a, 10^−4M, copper alone 61 minutes
[2] = FIG. 4c, 10^−4M, absence of compound 370.9
[3] = FIG. 7a, 10^−4M, absence of compounds 67.3 minutes
[4] = FIG. 8a, 10^−4M, absence of compounds 67.3 minutes
[5] = FIG. 5c, 10^−4M, absence of compounds 386
[6] = FIG. 2a, 10^−4M, copper alone 132 minutes
[7] = FIG. 2c, 10^−4M, copper alone 511

Structure (SMILES): Cc1cc(/C=C/C(=O)c2ccc(OCCSC3CCCCC3)cc2)cc(C)c1OC(C)(C)C(=O)O [compound 23, 1-(4-Cyclohexylthioethyloxyphenyl)-3-(4-carboxydimethylmethyloxy-3,5-dimethylphenyl)prop-2-en-1-one]
- lag phase (LDL; [1]): 96.4 min
- diene formation rate (LDL; 10^−4M): 1.3 nmol/min/mg of LDL
- total amount of dienes formed (LDL; [2]): 340.3 nmol/mg of LDL
- Induction factor (PPARα; 0.0003 μM): 0.92
- Induction factor (PPARα; 0.001 μM): 1.11
- Induction factor (PPARα; 0.003 μM): 1.33
- Induction factor (PPARα; 0.01 μM): 2.35
- Induction factor (PPARα; 0.03 μM): 4.22
- Induction factor (PPARα; 0.1 μM): 7.16
- Induction factor (PPARα; 0.3 μM): 8.08
- Induction factor (PPARα; 1 μM): 8.35
- Induction factor (PPARα; 3 μM): 7.15
- Induction factor (PPARγ; 0.0003 μM): 1.02
- Induction factor (PPARγ; 0.001 μM): 1.43
- Induction factor (PPARγ; 0.003 μM): 2.86
- Induction factor (PPARγ; 0.01 μM): 3.48
- Induction factor (PPARγ; 0.03 μM): 5.04
- Induction factor (PPARγ; 0.1 μM): 6.17
- Induction factor (PPARγ; 0.3 μM): 6.84
- Induction factor (PPARγ; 1 μM): 7.24
- Induction factor (PPARγ; 3 μM): 6.98

Structure (SMILES): COc1ccc(OC)c(C(=O)/C=C/c2cc(C)c(OC(C)(C)C(=O)O)c(C)c2)c1 [compound 41, 1-(2,5-Dimethoxyphenyl)-3-(4-carboxydimethylmethyloxy-3,5-dimethylphenyl)prop-2-en-1-one]
- lag phase (LDL; [3]): 100 min
- total amount of dienes formed (LDL; FIG. 7c, 10^−4M, absence of compounds 432.5): 403 nmol/mg of LDL

Structure (SMILES): Cc1cc(C(=O)/C=C/c2cc(C)c(OC(C)(C)C(=O)O)c(C)c2)cc(C)c1OCCN1CCOCC1 [compound 43, 1-(3,5-Dimethyl-4-(morpholin-4-ylethyloxy)phenyl)-3-(4-carboxydimethylmethyloxy-3,5-dimethylphenyl)prop-2-en-1-one]
- lag phase (LDL; [4]): 97 min
- rate of LDL oxidation (LDL; 10^−4M): 2.2 nmol/min/mg

Structure (SMILES): CCCCCCOc1c(C)cc(C(=O)/C=C/c2cc(C)c(OC(C)(C)C(=O)O)c(C)c2)cc1C [compound 19, 1-(4-Hexyloxy-3,5-dimethylphenyl)-3-(4-carboxydimethylmethyloxy-3,5-dimethylphenyl)prop-2-en-1-one]
- lag phase (LDL; [1]): 92.5 min
- diene formation rate (LDL; 10^−4M): 1.6 nmol/min/mg of LDL
- total amount of dienes formed (LDL; [2]): 346.6 nmol/mg of LDL

Structure (SMILES): Cc1cc(/C=C/C(=O)c2ccc(OCCC3CCCCC3)cc2)cc(C)c1OC(C)(C)C(=O)O [compound 11, 1-(4-Cyclohexylethyloxyphenyl)-3-(4-carboxydimethylmethyloxy-3,5-dimethylphenyl)prop-2-en-1-one]
- lag phase (maximum) (LDL; FIG. 3a, 3.3×10^−5M, absence of compound 87.2 minutes): 210 min
- lag phase (LDL; FIG. 3a, 10^−6 M, absence of compound 87.2 minutes): 101.5 min

Structure (SMILES): COc1ccc(C(=O)/C=C/c2cc(C)c(OC(C)(C)C(=O)O)c(C)c2)cc1F [compound 35, 1-(4-Methoxy-3-fluorophenyl)-3-(4-carboxydimethylmethyloxy-3,5-dimethylphenyl)prop-2-en-1-one]
- Induction factor (PPARα; 0.003 μM): 1.41
- Induction factor (PPARα; 0.01 μM): 1.54
- Induction factor (PPARα; 0.03 μM): 2.53
- Induction factor (PPARα; 0.1 μM): 7.47
- Induction factor (PPARα; 0.3 μM): 15.51
- Induction factor (PPARα; 1 μM): 24.33
- Induction factor (PPARα; 3 μM): 23.70
- Induction factor (PPARα; 10 μM): 21.03

Structure (SMILES): COc1ccc(C(=O)/C=C/c2cc(C)c(OC(C)(C)C(=O)O)c(C)c2)cc1C [compound 37, 1-(4-Methoxy-3-methylphenyl)-3-(4-carboxydimethylmethyloxy-3,5-dimethylphenyl)prop-2-en-1-one]
- lag phase (LDL; FIG. 6a, 10^−4M, absence of compound 56 minutes): 106 min
- oxidation rate (LDL; FIG. 6b, 10^−4M, absence of compound 2): 1.8 nmol/min/mg of LDL
- total amount of dienes formed (LDL; FIG. 6c, 10^−4M, absence of compound 360.0): 326.9 nmol/mg of LDL
- Induction factor (PPARα; 0.01 μM): 1.54
- Induction factor (PPARα; 0.03 μM): 2.54
- Induction factor (PPARα; 0.1 μM): 7.89
- Induction factor (PPARα; 0.3 μM): 17.25
- Induction factor (PPARα; 1 μM): 19.77
- Induction factor (PPARα; 3 μM): 16.89

Structure (SMILES): Cc1cc(C)c(C(=O)/C=C/c2cc(C)c(OC(C)(C)C(=O)O)c(C)c2)cc1C [compound 25, 1-(2,4,5-Trimethylphenyl)-3-(4-carboxydimethylmethyloxy-3,5-dimethylphenyl)prop-2-en-1-one]
- kinetics of LDL oxidation (lag phase) (LDL; 10^−4M): 87.6 min
- LDL oxidation rate (LDL; 10^−4M): 1.6 nmol/min/mg
- total amount of dienes formed (LDL; [5]): 365 nmol/mg

Structure (SMILES): Cc1cc(C(=O)/C=C/c2cc(C)c(OC(C)(C)C(=O)O)c(C)c2)cc(C)c1O [compound 4, 1-(4-Hydroxy-3,5-dimethylphenyl)-3-(4-carboxydimethylmethyloxy-3,5-dimethylphenyl)prop-2-ene-1-one]
- lag phase (LDL; [6]): 401 min
- rate of diene formation (LDL; 10^−4M): 0.2 nmol/min/mg
- total amount of dienes formed (LDL; [7]): 138 nmol/mg
- Induction factor (PPARα; 1 μM): 1.67
- Induction factor (PPARα; 10 μM): 9.92
- Induction factor (PPARγ; 1 μM): 2.00
- Induction factor (PPARγ; 10 μM): 5.82

Structure (SMILES): Cc1cc(C(=O)/C=C/c2cc(C)c(OC(C)(C)C(=O)O)c(C)c2)cc(C)c1OCCSC1CCCCC1 [compound 27, 1-(4-Cyclohexylthioethyloxy-3,5-dimethylphenyl)-3-(4-carboxydimethylmethyloxy-3,5-dimethylphenyl)prop-2-en-1-one]
- kinetics of LDL oxidation (lag phase) (LDL; 10^−4M): 170.8 min
- LDL oxidation rate (LDL; 10^−4M): 0.8 nmol/min/mg
- total amount of dienes formed (LDL; [5]): 374 nmol/mg

Structure (SMILES): COc1ccc(C(=O)/C=C/c2cc(C)c(OC(C)(C)C(=O)O)c(C)c2)cc1C(F)(F)F [compound 47, 1-(4-Methoxy-3-trifluoromethylphenyl)-3-(4-carboxydimethylmethyloxy-3,5-dimethylphenyl)prop-2-en-1-one]
- lag phase (LDL; [3]): 126.5 min

Structure (SMILES): Cc1cc(/C=C/C(=O)c2ccc(OCCCCCC3CCSS3)cc2)cc(C)c1OC(C)(C)C(=O)O (racemic) [compound 6, 1-(4-((R,S)-5-[1,2]dithiolan-3-ylpentyloxy)phenyl)-3-(4-carboxydimethylmethyloxy-3,5-dimethylphenyl)prop-2-en-1-one]
- lag phase (LDL; [6]): 205 min
- rate of diene formation (LDL; 10^−4M): 1.7 nmol/min/mg
- total amount of dienes formed (LDL; [7]): 443 nmol/mg
- Induction factor (PPARα; 1 μM): 5.48
- Induction factor (PPARα; 10 μM): 7.01
- Induction factor (PPARγ; 1 μM): 4.12
- Induction factor (PPARγ; 10 μM): 6.83

Structure (SMILES): COc1c(C)cc(C(=O)/C=C/c2cc(C)c(OC(C)(C)C(=O)O)c(C)c2)cc1C [compound 17, 1-(4-Methoxy-3,5-dimethylphenyl)-3-(4-carboxydimethylmethyloxy-3,5-dimethylphenyl)prop-2-en-1-one]
- lag phase (LDL; [4]): 148 min
- rate of LDL oxidation (LDL; 10^−4M): 1.8 nmol/min/mg
